Data published in patent US12102633B2, “Spirolactone compounds” (Quixgen, Inc., priority 2017, dated 2024).

How the values were obtained:
Human sebocytes [1] = assay: Lipogenesis of human sebocytes; type: cell-based; settings: 96 hours, nile red, read-out: LG-Sebo IC50
Protocol: Human sebocytes (Celprogen) were grown in collagen-coated 96-well culture microplate (White/Clear bottom, Coming BioCoat) with growth media till 100% confluency. Culture media was changed to growth media plus 100 μM arachidonic acid (Sigma) and 10 μM rosiglitazone (Tocris) with compounds prepared in DMSO (1:1000 dilution in growth media). Cells were treated with compounds for 96 hours with media containing compounds changed after 48 hours. Upon completion of treatment, cells were washed with 200 μL Phosphate Buffered Saline (PBS) and then fixed by adding 100 μL 4% formaldehyde (Sigma) and incubated at room temperature for 1 hour. Cells were then washed 3 times with PBS. Microplate was stained with 100 μL nile red solution prepared in PBS (2 mg/mL, 1:400 dilution) by incubating at 37° C. for 1 hour and then washed 3 times with PBS. The fluorescence was read at Ex 492 nm and Em 595 nm (TECAN SpectrofluorPlus). Effect of compounds on lipogenesis in sebocytes was calculated by % of DMSO vehicle control.

[2] = Standard PK in CD-1 mice (m-PK); type: in vivo, mouse; settings: for half-life / clearance: male; for half-life: CD-1, mouse, whole blood, read-out: m-PK T1/2 (converted); for clearance: CD-1, whole blood, 1 mg/kg IV, read-out: m-PK Cl; for clearance / m-PK F: mouse; for m-PK F: 5 mg/kg PO vs 1 mg/kg IV
Protocol: Standard PK. Male catheterized CD-1 mice were treated with Compound 6 prepared in vehicle (5% DMSO+10% Solutol+85% PBS, PH=7.4) at doses of 1 mg/kg for IV (5 mL/kg) or 5 mg/kg for PO (10 mL/kg). Blood samples (20 VL) were collected at 0.083, 0.25, 0.5, 1, 2, 4, 8, and 24 hrs post dose and mixed with 60 VL 0.1 M sodium citrate. Upon extraction by using acetonitrile, blood concentrations of Compound 6 were quantitated by LC-MS/MS. PK parameters were calculated by using WinNonlin® 6.4.

[3] = Plasma protein binding (human); type: in vitro ADME; settings: % free, read-out: PPB (h/m) % free, human
Protocol: (§1) The data in Table 5 were obtained by following the methods disclosed in this application and/or those standard techniques known in the art. ACC enzyme activities were measured according to Biological Examples 1 and 2; Malonyl-CoA in sebocytes were measured according to Biological Example 4; Effect on lipogenesis of 3T3-L1 adipocytes were measured according to Biological Example 7; Effect on lipogenesis of sebocytes were measured according to Biological Example 5; Effect on proliferation of sebocytes were measured according to Biological Example 6; Mouse PK were measured according to Biological Example 10; and Plasma protein binding (human or mouse) were measured by standard technique.

[4] = Plasma protein binding (mouse); type: in vitro ADME; settings: % free, read-out: PPB (h/m) % free, mouse
Protocol: as §1

human ACC1 = target: T1, human ACC1 (Homo sapiens, UniProt Q13085); assay: Human ACC enzymatic activity assay (ACC1); type: biochemical; settings: purified human ACC1; read-out: EA-CoA hACC 1 IC50
T1 construct: purchased BPS Bioscience
Outline: (§2)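 Purified human ACC1 (0.4 μg/mL) or ACC2 (0.48 μg/mL) was preincubated with compound 10 min at 37° C in HEPES pH 7.5 with 4.0 mM ATP and 15 mM ^13C-NaHCO3. The reaction was started with 5 μM acetyl-CoA, run 1-2 h at 37° C and stopped with TCA. Labelled malonyl-CoA was quantified by LC-MS/MS.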

human ACC2 = target: T2, human ACC2 (Homo sapiens, UniProt O00763); assay: Human ACC enzymatic activity assay (ACC2); type: biochemical; settings: purified human ACC2; read-out: EA-CoA hACC 2 IC50
T2 construct: purchased BPS Bioscience
Outline: as §2

Human sebocytes [5] = assay: Cellular levels of malonyl-CoA in human sebocytes; type: cell-based; settings: 0.5 h, 30 min incubation, read-out: Malonyl-CoA in Sebo IC50
Protocol: Shimadzu LC system was used for sample analysis consisting of system controller (Shimadzu CBM-20A), autosampler (Shimadzu SIL-20A), pump A and B (Shimadzu LC-20AD), column oven (Shimadzu CTO-20A), and analytical column (Phenomenex Gemini 5u C18 11A, 100×2 mm). LC was running at 200 μL/min in the binary gradient mode with mobile phase A (5 mM Ammonium Acetate and 5 mM DMBA in water (1,3-Dimethylbutylamine)) and B (methanol). The samples were analyzed on an AB Sciex QTrap4000 LC-MS/MS triple quadrupole mass spectrometer (Applied Biosystems). Malonyl-CoA and malonyl-13C-CoA were monitored in positive ion mode following MRM transitions at 854.2/347.1 and 855.1/246.1, respectively. The product and internal standard were coeluted to the mass spectrometer in 3 s with 50% H2O, 25% MeCN, 25% acetone, and 5 mM ammonium acetate. Ion chromatograms were integrated using the Analyst 1.5.2 software. Peak area ratios were compared against a standard curve and final cellular concentration of malonyl-CoA or production rate of malonyl-13C-CoA was calculated as pmoles/mg protein per minute.
Human sebocytes (Celprogen) were grown in growth media (DMEM with 4.5 g/L glucose, 0.584 g/L L-glutamine (Sigma), 100 units/mL of penicillin and 100 μg/mL of streptomycin (Gibco), 10% fetal bovine serum (Gibco)) at 37° C. in a humidified water jacketed incubator (Forma Scientific) supplemented with 5% CO2 till 100% confluency. Cells grown in 152 cm^2 cell culture dish (Corning) were trypsinized with 0.25% trypsin-EDTA (Gibco), centrifuged at 800 rpm for 10 min (Eppendorf) and resuspended in 4 mL growth media. To 1 μL serial diluted compounds in DMSO, 99 μL cells (around 0.5 million cells suspended in growth media) were added and mixed well followed by incubation in cell culture incubator for 30 min. Cells were then centrifuged at 800 rpm for 10 min and 70 μL 10% trichloroacetic acid was added to each well to lyse the cells and precipitate proteins. Cellular levels of malonyl-CoA were quantitated by LC-MS/MS.

T2 sequence (O00763 whole entry): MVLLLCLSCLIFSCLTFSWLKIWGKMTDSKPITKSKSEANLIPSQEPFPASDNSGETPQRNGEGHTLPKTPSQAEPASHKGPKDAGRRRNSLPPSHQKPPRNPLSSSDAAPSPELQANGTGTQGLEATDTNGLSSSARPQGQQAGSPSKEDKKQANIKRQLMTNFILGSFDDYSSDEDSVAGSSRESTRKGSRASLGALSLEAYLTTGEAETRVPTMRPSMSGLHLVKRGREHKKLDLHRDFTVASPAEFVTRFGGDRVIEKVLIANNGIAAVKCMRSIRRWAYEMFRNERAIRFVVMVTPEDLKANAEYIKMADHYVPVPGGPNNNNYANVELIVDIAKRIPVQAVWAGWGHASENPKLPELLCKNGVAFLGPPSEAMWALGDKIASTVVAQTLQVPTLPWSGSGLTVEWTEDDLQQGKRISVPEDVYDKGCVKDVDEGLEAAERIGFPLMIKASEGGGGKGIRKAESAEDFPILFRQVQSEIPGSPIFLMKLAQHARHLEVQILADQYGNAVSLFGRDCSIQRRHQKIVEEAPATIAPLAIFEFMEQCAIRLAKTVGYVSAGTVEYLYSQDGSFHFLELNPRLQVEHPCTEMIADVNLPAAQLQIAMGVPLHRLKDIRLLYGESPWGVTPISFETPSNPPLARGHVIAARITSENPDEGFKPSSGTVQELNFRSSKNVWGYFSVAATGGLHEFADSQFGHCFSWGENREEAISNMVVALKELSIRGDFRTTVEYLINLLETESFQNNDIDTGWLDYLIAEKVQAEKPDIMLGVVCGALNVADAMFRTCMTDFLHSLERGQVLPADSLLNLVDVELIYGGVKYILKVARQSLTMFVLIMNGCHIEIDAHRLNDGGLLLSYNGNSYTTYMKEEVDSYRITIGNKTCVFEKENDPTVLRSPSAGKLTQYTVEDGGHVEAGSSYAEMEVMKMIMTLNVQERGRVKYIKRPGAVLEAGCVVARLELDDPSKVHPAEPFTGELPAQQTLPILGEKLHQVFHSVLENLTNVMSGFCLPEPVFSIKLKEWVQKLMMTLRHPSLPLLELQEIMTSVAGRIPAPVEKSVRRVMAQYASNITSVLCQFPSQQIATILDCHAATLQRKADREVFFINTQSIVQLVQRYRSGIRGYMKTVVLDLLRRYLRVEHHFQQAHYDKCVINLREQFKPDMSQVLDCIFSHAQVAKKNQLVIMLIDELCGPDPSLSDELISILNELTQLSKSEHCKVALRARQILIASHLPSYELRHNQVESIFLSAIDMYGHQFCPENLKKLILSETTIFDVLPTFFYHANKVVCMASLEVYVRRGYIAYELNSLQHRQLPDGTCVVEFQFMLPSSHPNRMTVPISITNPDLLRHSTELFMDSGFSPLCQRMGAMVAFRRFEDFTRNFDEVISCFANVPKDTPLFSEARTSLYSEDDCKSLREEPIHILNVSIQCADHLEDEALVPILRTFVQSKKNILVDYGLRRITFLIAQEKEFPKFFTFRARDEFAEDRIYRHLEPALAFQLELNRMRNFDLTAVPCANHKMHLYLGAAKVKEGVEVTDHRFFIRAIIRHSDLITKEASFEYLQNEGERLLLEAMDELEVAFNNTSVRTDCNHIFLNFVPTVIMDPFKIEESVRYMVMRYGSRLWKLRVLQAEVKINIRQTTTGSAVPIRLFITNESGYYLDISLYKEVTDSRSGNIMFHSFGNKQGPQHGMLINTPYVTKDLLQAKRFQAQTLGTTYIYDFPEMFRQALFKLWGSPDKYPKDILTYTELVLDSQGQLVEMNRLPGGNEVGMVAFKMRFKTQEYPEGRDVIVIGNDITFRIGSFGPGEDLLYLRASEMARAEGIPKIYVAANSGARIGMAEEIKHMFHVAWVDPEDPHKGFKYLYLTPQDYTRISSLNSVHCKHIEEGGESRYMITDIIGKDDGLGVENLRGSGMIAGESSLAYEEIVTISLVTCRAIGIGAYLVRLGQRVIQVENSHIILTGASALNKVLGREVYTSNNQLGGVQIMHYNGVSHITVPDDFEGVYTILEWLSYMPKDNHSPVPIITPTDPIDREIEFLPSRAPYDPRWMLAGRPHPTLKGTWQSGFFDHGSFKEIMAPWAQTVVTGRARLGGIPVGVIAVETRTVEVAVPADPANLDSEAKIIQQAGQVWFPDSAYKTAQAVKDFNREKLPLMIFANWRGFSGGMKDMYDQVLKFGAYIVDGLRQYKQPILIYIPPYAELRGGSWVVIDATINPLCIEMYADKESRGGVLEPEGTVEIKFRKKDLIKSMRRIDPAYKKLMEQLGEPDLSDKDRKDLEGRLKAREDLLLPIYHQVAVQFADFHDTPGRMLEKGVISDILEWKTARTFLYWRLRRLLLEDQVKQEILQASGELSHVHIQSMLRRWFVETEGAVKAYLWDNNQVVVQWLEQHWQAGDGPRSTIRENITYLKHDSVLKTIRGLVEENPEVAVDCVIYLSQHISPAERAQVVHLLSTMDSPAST

Row | SMILES | IC50 (Human sebocytes [1]) [nM] | half-life [2] [min] | clearance [2] [mL/min/kg] | m-PK F [2] | fraction unbound [3] | fraction unbound [4] | IC50 (human ACC1) [nM] | IC50 (human ACC2) [nM] | IC50 (Human sebocytes [5]) [nM]
1 | COc1cc(C(=O)N2CCC3(CC2)Cc2ccc(C(C)C)cc2C(=O)O3)nc2c(OC)cccc12 [Example 2, 1′-(4,8-dimethoxyquinoline-2-carbonyl)-7-isopropylspiro[isochroman-3,4′-piperidin]-1-one] | 25 | 25.2 | 46.5 | F: 4.9% | 0.0037 | 0.0028 |  |  | 
2 | COc1cc(C(=O)N2CCC3(CC2)Cc2ccc(Nc4ccnn4C)cc2C(=O)O3)nc2c(OC)cccc12 [Example 6, 1′-(4,8-dimethoxyquinoline-2-carbonyl)-7-((1-methyl-1H-pyrazol-5-yl)amino)spiro[isochroman-3,4′-piperidin]-1-one] |  | 30 | 15.2 | F: 53% | 0.0036 | 0.0073 | 36.2 | 31.2 | 47.4
